From PubChem BioAssay AID1963829 (Molecular Pharmacology Branch, DTP, NCI, 2024)

Test system: 935938-334-R-J1-PDC complex spheroid viability
Experiment: Anticancer human tumor 935938-334-R-J1-PDC patient-derived small intestine adenocarcinoma cell line growth inhibition [POLQ]
Conditions: second compound 0.316 µM; first compound 0.316 µM; hits give low values
Method in brief: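 Complex spheroid viability model combining PDC tumour cells with endothelial (HUVEC) and MSC stromal cells. Novobiocin, ART-558 or RP6685 were tested singly and in combination with standard and investigational anticancer drugs. Each was titrated in half-log steps from near clinical Cmax, or from 10 microM where Cmax was unknown.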
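Also: spheroids exposed to drugs for seven days before viability read; 100% = DMSO vehicle control wells.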

Row | Compound | viability, T/C
1 | CC(C)n1c(=O)n(C)c2cnc3cc(F)c(-c4ccc(OCCCN5CCCCC5)nc4)cc3c21 + Cc1cccc(N(C)C(=O)C2C(O)CCN2c2nc(C)cc(C(F)(F)F)c2C#N)c1 | 100%
2 | COc1cccc(OCCCN)c1-c1cc(Nc2cnc(C#N)cn2)n[nH]1 + Cc1cccc(N(C)C(=O)C2C(O)CCN2c2nc(C)cc(C(F)(F)F)c2C#N)c1 | 10.1%

Same assay, conditions: second compound 0.316 µM; first compound 1 µM; hits give low values

Row | Compound | viability, T/C
3 | O=C(Nc1ccc(O)c(NS(=O)(=O)c2ccc(F)cc2)c1)c1ccc(-c2ccccc2)cc1 + COC1C(OC(N)=O)C(O)C(Oc2ccc3c(O)c(NC(=O)c4ccc(O)c(CC=C(C)C)c4)c(=O)oc3c2C)OC1(C)C | 75.9%
4 | O=c1[nH]cc(F)c(=O)[nH]1 + Cc1cccc(N(C)C(=O)C2C(O)CCN2c2nc(C)cc(C(F)(F)F)c2C#N)c1 | 82.4%
5 | CC1COCCN1c1cc(C2(S(C)(=N)=O)CC2)nc(-c2ccnc3[nH]ccc23)n1 (stereo unspecified) + Nc1ccc(C#CCN(C(=O)Cc2ncc(C(F)(F)F)cc2C(F)(F)F)c2ccc(F)cc2)nn1 | 82.8%
6 | CCCS(=O)(=O)Nc1ccc(F)c(C(=O)c2c[nH]c3ncc(-c4ccc(Cl)cc4)cc23)c1F + Cc1cccc(N(C)C(=O)C2C(O)CCN2c2nc(C)cc(C(F)(F)F)c2C#N)c1 | 120%
7 | COc1ccc([C@@H](O)c2cc(-c3ncnc4cc(N5CCOCC5)ccc34)c(F)cc2Cl)nn1 + Cc1cccc(N(C)C(=O)C2C(O)CCN2c2nc(C)cc(C(F)(F)F)c2C#N)c1 | 75.8%
8 | CC(C)n1c(=O)n(C)c2cnc3cc(F)c(-c4ccc(OCCCN5CCCCC5)nc4)cc3c21 + Cc1cccc(N(C)C(=O)C2C(O)CCN2c2nc(C)cc(C(F)(F)F)c2C#N)c1 | 97%
9 | COc1cccc(OCCCN)c1-c1cc(Nc2cnc(C#N)cn2)n[nH]1 + Cc1cccc(N(C)C(=O)C2C(O)CCN2c2nc(C)cc(C(F)(F)F)c2C#N)c1 | 10.6%

Same assay, conditions: second compound 0.316 µM; first compound 3.16 µM; hits give low values

Row | Compound | viability, T/C
10 | O=C(Nc1ccc(O)c(NS(=O)(=O)c2ccc(F)cc2)c1)c1ccc(-c2ccccc2)cc1 + COC1C(OC(N)=O)C(O)C(Oc2ccc3c(O)c(NC(=O)c4ccc(O)c(CC=C(C)C)c4)c(=O)oc3c2C)OC1(C)C | 93.3%
11 | O=c1[nH]cc(F)c(=O)[nH]1 + Cc1cccc(N(C)C(=O)C2C(O)CCN2c2nc(C)cc(C(F)(F)F)c2C#N)c1 | 78%
12 | CC1COCCN1c1cc(C2(S(C)(=N)=O)CC2)nc(-c2ccnc3[nH]ccc23)n1 (stereo unspecified) + Nc1ccc(C#CCN(C(=O)Cc2ncc(C(F)(F)F)cc2C(F)(F)F)c2ccc(F)cc2)nn1 | 50.9%
13 | CCCS(=O)(=O)Nc1ccc(F)c(C(=O)c2c[nH]c3ncc(-c4ccc(Cl)cc4)cc23)c1F + Cc1cccc(N(C)C(=O)C2C(O)CCN2c2nc(C)cc(C(F)(F)F)c2C#N)c1 | 120%
14 | COc1ccc([C@@H](O)c2cc(-c3ncnc4cc(N5CCOCC5)ccc34)c(F)cc2Cl)nn1 + Cc1cccc(N(C)C(=O)C2C(O)CCN2c2nc(C)cc(C(F)(F)F)c2C#N)c1 | 48.2%
15 | CC(C)n1c(=O)n(C)c2cnc3cc(F)c(-c4ccc(OCCCN5CCCCC5)nc4)cc3c21 + Cc1cccc(N(C)C(=O)C2C(O)CCN2c2nc(C)cc(C(F)(F)F)c2C#N)c1 | 94.2%

Same assay, conditions: second compound 0.316 µM; first compound 10 µM; hits give low values

Row | Compound | viability, T/C
16 | O=C(Nc1ccc(O)c(NS(=O)(=O)c2ccc(F)cc2)c1)c1ccc(-c2ccccc2)cc1 + COC1C(OC(N)=O)C(O)C(Oc2ccc3c(O)c(NC(=O)c4ccc(O)c(CC=C(C)C)c4)c(=O)oc3c2C)OC1(C)C | 73.6%
17 | O=c1[nH]cc(F)c(=O)[nH]1 + Cc1cccc(N(C)C(=O)C2C(O)CCN2c2nc(C)cc(C(F)(F)F)c2C#N)c1 | 68.2%
18 | CC1COCCN1c1cc(C2(S(C)(=N)=O)CC2)nc(-c2ccnc3[nH]ccc23)n1 (stereo unspecified) + Nc1ccc(C#CCN(C(=O)Cc2ncc(C(F)(F)F)cc2C(F)(F)F)c2ccc(F)cc2)nn1 | 14.2%
19 | CCCS(=O)(=O)Nc1ccc(F)c(C(=O)c2c[nH]c3ncc(-c4ccc(Cl)cc4)cc23)c1F + Cc1cccc(N(C)C(=O)C2C(O)CCN2c2nc(C)cc(C(F)(F)F)c2C#N)c1 | 44.8%
20 | COc1ccc([C@@H](O)c2cc(-c3ncnc4cc(N5CCOCC5)ccc34)c(F)cc2Cl)nn1 + Cc1cccc(N(C)C(=O)C2C(O)CCN2c2nc(C)cc(C(F)(F)F)c2C#N)c1 | 30.3%
21 | CC(C)n1c(=O)n(C)c2cnc3cc(F)c(-c4ccc(OCCCN5CCCCC5)nc4)cc3c21 + Cc1cccc(N(C)C(=O)C2C(O)CCN2c2nc(C)cc(C(F)(F)F)c2C#N)c1 | 97.3%

Same assay, conditions: second compound 1 µM; first compound 0.00316 µM; hits give low values

Row | Compound | viability, T/C
22 | COc1cccc(OCCCN)c1-c1cc(Nc2cnc(C#N)cn2)n[nH]1 + Cc1cccc(N(C)C(=O)C2C(O)CCN2c2nc(C)cc(C(F)(F)F)c2C#N)c1 | 106%

Same assay, conditions: second compound 1 µM; first compound 0.01 µM; hits give low values

Row | Compound | viability, T/C
23 | COc1cccc(OCCCN)c1-c1cc(Nc2cnc(C#N)cn2)n[nH]1 + Cc1cccc(N(C)C(=O)C2C(O)CCN2c2nc(C)cc(C(F)(F)F)c2C#N)c1 | 86%

Same assay, conditions: second compound 1 µM; first compound 0.0316 µM; hits give low values

Row | Compound | viability, T/C
24 | O=C(Nc1ccc(O)c(NS(=O)(=O)c2ccc(F)cc2)c1)c1ccc(-c2ccccc2)cc1 + COC1C(OC(N)=O)C(O)C(Oc2ccc3c(O)c(NC(=O)c4ccc(O)c(CC=C(C)C)c4)c(=O)oc3c2C)OC1(C)C | 106%
25 | O=c1[nH]cc(F)c(=O)[nH]1 + Cc1cccc(N(C)C(=O)C2C(O)CCN2c2nc(C)cc(C(F)(F)F)c2C#N)c1 | 110%
26 | CC1COCCN1c1cc(C2(S(C)(=N)=O)CC2)nc(-c2ccnc3[nH]ccc23)n1 (stereo unspecified) + Nc1ccc(C#CCN(C(=O)Cc2ncc(C(F)(F)F)cc2C(F)(F)F)c2ccc(F)cc2)nn1 | 118%
27 | CCCS(=O)(=O)Nc1ccc(F)c(C(=O)c2c[nH]c3ncc(-c4ccc(Cl)cc4)cc23)c1F + Cc1cccc(N(C)C(=O)C2C(O)CCN2c2nc(C)cc(C(F)(F)F)c2C#N)c1 | 95.7%
28 | COc1ccc([C@@H](O)c2cc(-c3ncnc4cc(N5CCOCC5)ccc34)c(F)cc2Cl)nn1 + Cc1cccc(N(C)C(=O)C2C(O)CCN2c2nc(C)cc(C(F)(F)F)c2C#N)c1 | 90.6%
29 | CC(C)n1c(=O)n(C)c2cnc3cc(F)c(-c4ccc(OCCCN5CCCCC5)nc4)cc3c21 + Cc1cccc(N(C)C(=O)C2C(O)CCN2c2nc(C)cc(C(F)(F)F)c2C#N)c1 | 88%
30 | COc1cccc(OCCCN)c1-c1cc(Nc2cnc(C#N)cn2)n[nH]1 + Cc1cccc(N(C)C(=O)C2C(O)CCN2c2nc(C)cc(C(F)(F)F)c2C#N)c1 | 60.7%

Same assay, conditions: second compound 1 µM; first compound 0.1 µM; hits give low values

Row | Compound | viability, T/C
31 | O=C(Nc1ccc(O)c(NS(=O)(=O)c2ccc(F)cc2)c1)c1ccc(-c2ccccc2)cc1 + COC1C(OC(N)=O)C(O)C(Oc2ccc3c(O)c(NC(=O)c4ccc(O)c(CC=C(C)C)c4)c(=O)oc3c2C)OC1(C)C | 109%
32 | O=c1[nH]cc(F)c(=O)[nH]1 + Cc1cccc(N(C)C(=O)C2C(O)CCN2c2nc(C)cc(C(F)(F)F)c2C#N)c1 | 94.9%
33 | CC1COCCN1c1cc(C2(S(C)(=N)=O)CC2)nc(-c2ccnc3[nH]ccc23)n1 (stereo unspecified) + Nc1ccc(C#CCN(C(=O)Cc2ncc(C(F)(F)F)cc2C(F)(F)F)c2ccc(F)cc2)nn1 | 98.6%
34 | CCCS(=O)(=O)Nc1ccc(F)c(C(=O)c2c[nH]c3ncc(-c4ccc(Cl)cc4)cc23)c1F + Cc1cccc(N(C)C(=O)C2C(O)CCN2c2nc(C)cc(C(F)(F)F)c2C#N)c1 | 125%
35 | COc1ccc([C@@H](O)c2cc(-c3ncnc4cc(N5CCOCC5)ccc34)c(F)cc2Cl)nn1 + Cc1cccc(N(C)C(=O)C2C(O)CCN2c2nc(C)cc(C(F)(F)F)c2C#N)c1 | 80.2%
36 | CC(C)n1c(=O)n(C)c2cnc3cc(F)c(-c4ccc(OCCCN5CCCCC5)nc4)cc3c21 + Cc1cccc(N(C)C(=O)C2C(O)CCN2c2nc(C)cc(C(F)(F)F)c2C#N)c1 | 103%
